Bridge positions count the residues as written; N and C are the ends. Peptide text beside a SMILES is read from it.
Columns and labels:
[1] = tested on: Listeria monocytogenes ATCC 19115; experiment: Killing kinetics (colony counting); format: cell-based; details: 200 μg/mL peptide, 37°C, PBS pH 7.4; sampled at 0, 30, 60, 90, 180 min
Experimental: (§1) Bacteria were cultured overnight at 37°C in LB broth for E. coli, and in tryptic soy broth for the other bacteria, and suspended to 5.0×10^5 colony-forming units (CFU)/mL in PBS (pH 7.4). To measure antimicrobial activity, 25 μL of bacteria were added into 96-well microtiter plates and diluted duck LEAP-2 peptides were dispensed to final concentrations of 50, 100, 150, and 200 μg/mL. After 3 h of incubation at 37°C, surviving bacteria were counted using a standard colony counting assay according to the following formula: cell survival % = (treatment CFU/negative control CFU)×100. To determine the killing kinetics, L. monocytogenes and S. aureus were cultured overnight in tryptic soy broth and suspended to 5.0×10^5 CFU/mL in PBS (pH 7.4). Bacteria were added into 96-well microtiter plates with a final peptide concentration of 200 μg/mL. The bacteria and peptide mixture was incubated for 0, 30, 60, 90, and 180 min at 37°C. Surviving bacteria were counted using a standard colony counting assay.

Staphylococcus aureus = experiment: Killing kinetics (colony counting); format: cell-based; details: 200 μg/mL peptide, 37°C, PBS pH 7.4; sampled at 0, 30, 60, 90, 180 min
Experimental: as §1

S. aureus = experiment: Fluorescence microscopic analysis, LIVE/DEAD BacLight staining; format: cell-based, Staphylococcus aureus; details: 200 μg/mL peptide, 3 h at 37°C, SYTO9 / propidium iodide
Experimental: (§2) E. coli, S. aureus, and L. monocytogenes (5.0×10^5 CFU/mL) in PBS were incubated with a 200 μg/mL (final concentration) of the disulfide-LEAP-2 peptide for 3 h at 37°C. After incubation, the cells were washed with PBS and stained with LIVE/DEAD BacLight Bacterial Viability Kits (Invitrogen, USA) according to the manufacturer’s instructions. In brief, the bacteria were incubated for 15 min with SYTO9 green fluorescent […] and with propidium iodide in a dark room. The cells were then mounted onto glass slides and examined using EVOS FLoid Cell Imaging Station (Invitrogen, USA).

[2] = tested on: Staphylococcus aureus (S. aureus) ATCC 27664; experiment: Antimicrobial activity assay (colony counting); format: cell-based; details: 50 μg/mL peptide, 3 h at 37°C, 5.0×10^5 CFU/mL in PBS pH 7.4, colony counting
Experimental: (§3) The bacterial species used in this experiment included two gram-positive bacteria strains, Listeria monocytogenes (L. monocytogenes) ATCC 19115 and Staphylococcus aureus (S. aureus) ATCC 27664, and four gram-negative bacteria strains, E. coli ATCC 43888, Salmonella enterica serovar Enteritidis YHS 383, Salmonella enterica serovar Choleraesuis YHS 386, and Salmonella enterica serovar Typhimurium ATCC 43174.
as §1

[3] = tested on: Listeria monocytogenes (L. monocytogenes) ATCC 19115; experiment: Antimicrobial activity assay (colony counting); format: cell-based; details: 50 μg/mL peptide, 3 h at 37°C, 5.0×10^5 CFU/mL in PBS pH 7.4, colony counting
Experimental: as §3, §1

[4] = tested on: Salmonella enterica serovar Typhimurium ATCC 43174; experiment: Antimicrobial activity assay (colony counting); format: cell-based; details: 200 μg/mL peptide, 3 h at 37°C, PBS pH 7.4, colony counting
Experimental: as §3, §1

E. coli = experiment: Fluorescence microscopic analysis, LIVE/DEAD BacLight staining; format: cell-based, Escherichia coli; details: 200 μg/mL peptide, 3 h at 37°C, SYTO9 / propidium iodide
Experimental: as §2

E. coli ATCC 43888 = experiment: Antimicrobial activity assay (colony counting); format: cell-based, Escherichia coli; details: 50 μg/mL peptide, 3 h at 37°C, PBS pH 7.4, colony counting
Experimental: as §3
as §1, with “The bacteria and peptide mixture was incubated for 0, 30, 60, 90, and 180 min at 37°C.” left out

L. monocytogenes = experiment: Fluorescence microscopic analysis, LIVE/DEAD BacLight staining; format: cell-based, Listeria monocytogenes; details: 200 μg/mL peptide, 3 h at 37°C, SYTO9 / propidium iodide
Experimental: as §2

[5] = tested on: Salmonella enterica serovar Enteritidis YHS 383; experiment: Antimicrobial activity assay (colony counting); format: cell-based; details: 3 h at 37°C, PBS pH 7.4, colony counting; concentration not given
Experimental: as §3, §1

SMILES | time in which all L. monocytogenes were killed [1] [min] | killing of S. aureus over time (Staphylococcus aureus) | live/dead staining of S. aureus (red fluorescence = dead) (S. aureus) | killing of S. aureus [2] | killing of L. monocytogenes [3] | killing effect / inhibition of cell proliferation, S. Typhimurium [4] [%] | live/dead staining of E. coli (red fluorescence = dead) (E. coli) | E. coli killed (E. coli ATCC 43888) | live/dead staining of L. monocytogenes (red fluorescence = dead) (L. monocytogenes) | S. Enteritidis inhibited [5]
CC[C@H](C)[C@@H]1NC(=O)[C@@H]2CSSC[C@@H](C(=O)N[C@@H](Cc3ccccc3)C(=O)N[C@@H](CC(C)C)C(=O)N[C@@H](CCCNC(=N)N)C(=O)N[C@@H](CO)C(=O)N[C@@H](C)C(=O)N[C@@H](CO)C(=O)N[C@@H](CCC(=O)O)C(=O)O)NC(=O)[C@H](CCCNC(=N)N)NC(=O)[C@H](CC(N)=O)NC(=O)[C@H](CCCCN)NC(=O)[C@H](CCCNC(=N)N)NC(=O)[C@H](CSSC[C@H](NC(=O)[C@H](CO)NC(=O)[C@H](C)NC(=O)CNC(=O)[C@@H](NC(=O)[C@@H]3CCCN3C(=O)[C@H](CCCNC(=N)N)NC(=O)[C@H](CC(C)C)NC(=O)[C@H](CO)NC(=O)[C@@H](NC(=O)CNC(=O)[C@H](CCCNC(=N)N)NC(=O)[C@H](Cc3c[nH]c4ccccc34)NC(=O)[C@H](Cc3ccccc3)NC(=O)[C@@H]3CCCN3C(=O)[C@@H](NC(=O)[C@@H](N)CCSC)[C@@H](C)O)C(C)C)[C@@H](C)CC)C(=O)N[C@@H](CCCNC(=N)N)C(=O)N[C@@H](CC(=O)O)C(=O)N[C@@H](CC(N)=O)C(=O)N[C@@H](CO)C(=O)N[C@@H](CCC(=O)O)C(=O)N2)NC(=O)[C@H](CC(C)C)NC(=O)[C@H](CCSC)NC(=O)[C@H]([C@@H](C)O)NC1=O [disulfide LEAP-2] (H-MTPFWRGVSLRPIGASCRDNSECITMLCRKNRCFLRSASE-OH; disulfide 17-28, 23-33; N-terminus and C-terminus assumed) | ≤ 30 | killed S. aureus gradually over time | most of the cells were dead | killed most | killed most | 90 | most of the cells were dead | more than 90% | most of the cells were dead | 
CC[C@H](C)[C@H](NC(=O)[C@H](CS)NC(=O)[C@H](CCC(=O)O)NC(=O)[C@H](CO)NC(=O)[C@H](CC(N)=O)NC(=O)[C@H](CC(=O)O)NC(=O)[C@H](CCCNC(=N)N)NC(=O)[C@H](CS)NC(=O)[C@H](CO)NC(=O)[C@H](C)NC(=O)CNC(=O)[C@@H](NC(=O)[C@@H]1CCCN1C(=O)[C@H](CCCNC(=N)N)NC(=O)[C@H](CC(C)C)NC(=O)[C@H](CO)NC(=O)[C@@H](NC(=O)CNC(=O)[C@H](CCCNC(=N)N)NC(=O)[C@H](Cc1c[nH]c2ccccc12)NC(=O)[C@H](Cc1ccccc1)NC(=O)[C@@H]1CCCN1C(=O)[C@@H](NC(=O)[C@@H](N)CCSC)[C@@H](C)O)C(C)C)[C@@H](C)CC)C(=O)N[C@H](C(=O)N[C@@H](CCSC)C(=O)N[C@@H](CC(C)C)C(=O)N[C@@H](CS)C(=O)N[C@@H](CCCNC(=N)N)C(=O)N[C@@H](CCCCN)C(=O)N[C@@H](CC(N)=O)C(=O)N[C@@H](CCCNC(=N)N)C(=O)N[C@@H](CS)C(=O)N[C@@H](Cc1ccccc1)C(=O)N[C@@H](CC(C)C)C(=O)N[C@@H](CCCNC(=N)N)C(=O)N[C@@H](CO)C(=O)N[C@@H](C)C(=O)N[C@@H](CO)C(=O)N[C@@H](CCC(=O)O)C(=O)O)[C@@H](C)O [linear LEAP-2] (H-MTPFWRGVSLRPIGASCRDNSECITMLCRKNRCFLRSASE-OH; N-terminus and C-terminus assumed) | ≤ 30 | killed S. aureus gradually over time |  |  |  |  |  |  |  | not inhibited

Source: PMC6601062, “Identification of duck liver-expressed antimicrobial peptide 2 and characterization of its bactericidal activity” (Asian-Australasian Journal of Animal Sciences, 2018)
